The source of these data is PMC11858653, “Design, Synthesis and Bioactive Evaluation of Topo I/c-MYC Dual Inhibitors to Inhibit Oral Cancer via Regulating the PI3K/AKT/NF-κB Signaling Pathway” (Molecules, 2025).

The subject of one series is c-MYC. The experiment in a line: RT-qPCR of c-MYC transcription in Cal27 cells. The format is cell-based, human. To be noted: Cal27, 24 h. Here is the method: Cal27 cells were plated in a 6-well plate and incubated for 12 h at 37 °C in a humidified atmosphere with 5% CO2, then compound 7be was added at final concentrations of 1 μM, 2 μM, 3 μM and 4 μM. After incubation for 24 h, cells were harvested, and the RNA was extracted according to the manufacturer’s instructions. Total RNA was used as a template for reverse transcription. The cDNA was obtained and applied directly for further qPCR. According to the manufacturer’s protocol, the real-time PCR was performed on a real-time PCR apparatus. The total volume of 20 μL of quantitative reaction mixtures contained 10 μL of SYBR Green qPCR Mix, 0.4 μL PCR Forward Primer (10 μM), 0.4 μL PCR Reverse Primer (10 μM) and 2 μL of cDNA (Table S4). The c-MYC mRNA levels were normalized to the GAPDH mRNA level of each sample. Results of real-time PCR were analyzed using the 2^−ΔCt method.

A further series deals with c-MYC protein. In words: Western blot of c-MYC protein in Cal27 cells. It counts as cell-based, human. The conditions noted are these: Cal27, 24 h. On the procedure:
(§1) After Cal27 cells had been treated with the desired concentration of each drug for 24 h, the cells were collected and the total protein was extracted. The cells were then separated on a gel of appropriate concentration and transferred to a PVDF membrane. After blocking with milk, the membrane was incubated with primary antibody at 4 °C overnight. Subsequently, the membrane was incubated with horseradish peroxidase-coupled secondary antibody for 2 h. Finally, the protein bands were used to detect the immunoreactive signal using an enhanced chemiluminescence kit.

For a further series, the system named is MGC-803. In words: MTT antiproliferative assay, MGC-803. It counts as cell-based, human. The conditions noted are these: Homo sapiens, MGC-803, 48 h, mean ± SD.
In the next series the test system is NCI-H460. The experiment in a line: MTT antiproliferative assay, NCI-H460. It counts as cell-based, human. The conditions noted are these: Homo sapiens, NCI-H460, 48 h, mean ± SD. On the technique in general: Formazan colour is commonly taken as a measure of viable cells.
The nature of series [1]: In vivo biological safety evaluation. Further details: species or system BALB/c nude mice. Here is the method: (§2) Nude mouse organ and tumor tissues fixed with neutral formalin solution were paraffin-embedded according to the conventional processing method. Sections were cut to a thickness of approximately 5 μm, placed on glass slides and dewaxed in an oven at 60 °C, stained for H&E and immunohistochemistry and finally visualized with the Cytation 5 imaging system.
(§3) For this assay, 130 SPF-grade BALB/c mice (female, 4–6 weeks old, 18–20 g) were obtained from Chang Zhou Cavens Laboratory Animal Ltd. (Changzhou, China). The in vivo activity experiments were commissioned by Nanjing OG Pharmaceuticals, Co., Ltd. (Nanjing, China) All mice were housed in plastic cages, fed, and watered under standard conditions and air filtration (22 ± 2 °C; 12 h light/dark cycles). Under aseptic conditions, human oral cancer Cal27 cells were inoculated subcutaneously in the right axilla of BALB/c nude mice. When the tumors had grown to about 85 mm^3, 24 […] mice with good growth status and good homogeneity of tumor size were selected and randomly divided into the following four groups of six mice each: (1) the model group; (2) the low-dose group; (3) the high-dose group; and (4) the positive drug group. The drug dose in the low-dose group was 10 mg/kg, which was injected intraperitoneally once every other day, for the duration of 21 days of administration; the drug dose in the high-dose group was 20 mg/kg, which was injected intraperitoneally once every other day, for the duration of 21 days of administration; and the drug dose in the cisplatin group was 2 mg/kg, which was injected intraperitoneally once every other day, for the duration of 21 days of administration. Normal tissues of the heart, liver, spleen, lung and kidney and half of the tumor tissues were fixed with 4% formalin solution and embedded in paraffin for histological analysis; the other half of the tumor tissues were preserved in liquid nitrogen, and the supernatant was extracted after milling the tissues and detected by Western blot.

The next series concerns A549. The experiment in a line: MTT antiproliferative assay, A549. The format is cell-based, human. The conditions noted are these: Homo sapiens, A549, 48 h, mean ± SD.
In series [2] the test system is human oral cancer Cal27 xenograft tumor. In words: In vivo antitumor activity, Cal27 xenograft. On the set-up: species or system BALB/c nude mice. To be noted: for relative tumor proliferation rate / tumor suppression rate / tumor growth inhibition (TGI): 21 days. Here is the method: as §2, §3
Series [3] deals with Bax, Bcl-2, Cleaved PARP1/PARP1 in Cal27 cells. The experiment in a line: Western blot of apoptosis-related proteins. The format is cell-based, human. On the procedure:
as §1
For orientation: A western blot detects proteins with antibodies after separation by electrophoresis.

For a further series, the system named is Cal27 cells. The experiment in a line: Cell cycle analysis by flow cytometry. The format is cell-based, human. The conditions noted are these: Cal27, 4 μM, 24 h. On the procedure: Cal27 cells were treated with compound 7be for 24 h. Next, Cal27 cells were collected and suspended in ice ethanol at 4 °C for at least 24 h. Subsequently, Cal27 cells were incubated in RNase A and PI staining solution at 37 °C, protected from light, for 0.5 h. Finally, cells were detected by flow cytometry.
In general terms: A flow cytometer gives signals particle by particle.

Where [4] appears, read: 10 mg/kg i.p. once every other day.
[5] abbreviates: 20 mg/kg i.p. once every other day.

Several values for one entry are separate records, joined by “and”; a condition that tells them apart may be missing. Equal values may be shown once. Entries after “also recorded” stand apart in the source; their conditions may differ.

In the case of `Cc1cc(C)c2c(n1)S(=O)(=O)c1c-2nc(NCCN2CCCCC2)c2ccccc12` [7be, 7,9-Dimethyl-5-((2-(piperidin-1-yl)ethyl)amino) pyrido[3′,2′:4,5]thieno[3,2-c]isoquinoline 11,11-dioxide], the “concentration needed to significantly inhibit the transcription of c-MYC” value with c-MYC was determined as 8 µM. Also, the “concentration needed to significantly downregulate the level of c-MYC protein” value with c-MYC protein was found to be 2 µM. For the same compound, the midpoint of inhibition in the series with MGC-803, the IC50, lay at 1690 ± 240 nM. In the series with NCI-H460, this compound showed an IC50 of 2920 ± 560 nM. Also, the “body weight of mice during treatment” value in series [1] (10 or 20 mg/kg i.p., 21 days) is recorded as “no significant decrease in body weight; also recorded: no considerable weight loss”. The “organ weight of mice” value in series [1] (end of treatment) is listed as “no significant difference”. The “H&E staining of major organs” value in series [1] (heart, liver, spleen, lung, kidney) was “no lesions, degenerations or histopathological abnormalities”. In the series on A549, half-maximal inhibition (IC50) was put at 3320 ± 1900 nM. For the same compound, in series [2] (setting [4]), the “relative tumor proliferation rate” value is 52.0%; the “tumor suppression rate / tumor growth inhibition (TGI)” value was 48.53% and 48.5%. For the same compound, in series [2] (setting [5]), the “relative tumor proliferation rate” value came to 34.1%; the “tumor suppression rate / tumor growth inhibition (TGI)” value was 64.7% and 64.73%. Moreover, in series [2] (20 mg/kg, Western blot of tumor tissue), the “expressions of p62, COX-2 and Bcl-2 in tumor tissue” value is “decreased”. Moreover, in series [2] (Ki67 immunostaining), the “percentage of Ki67-positive cells in tumor tissue” value is on record as “decreased”. Besides, in series [3], the “Cleaved PARP1/PARP1” value is “up-regulated”, the “anti-apoptotic protein Bcl-2” value was “down-regulated” and the “pro-apoptotic protein Bax” value was “up-regulated”. Also, the “cells in S” value with Cal27 cells stood at 54.06%.

Usually IC50 stands for the concentration needed to halve the response being measured.
